No end group written: not given here.

The subject of one test is rats. The settings on record: Tang-Christensen et al. 1996, route not stated; cited from earlier work.
Test [1] concerns Mice. Kind of test: Appetite suppression in mice: sucrose consumption measured immediately after intraperitoneal injection (Example 2). The settings on record: 85 micrograms (equivalent to 3.4 mg/kg) intraperitoneally, tested immediately after injection, 10 minute period, versus vehicle, p-value 0.002. In kind it is in vivo. The procedure:
Mice were deprived of their normal food for two days and given free access to a 20% sucrose solution on the first day of food deprivation. After the two day food deprivation period, the mice were injected intraperitoneally with 0.5 ml of a solution containing the test substance. Immediately after injection, individual mice were placed in one of eight 15 cm square test boxes with a stainless steel grid floor and a glass drinking tube which projected into the box. […] Consumption of the sucrose solution was measured over a 10 minute period by electronically recording the total amount of contact with the sucrose solution during the test session. The degree of appetite suppression produced by a given test substance was determined by statistical comparison of the mean duration of sucrose consumption by control (vehicle treated) mice with that of mice treated with a test substance. The degree of appetite suppression in a treated group of mice was expressed as percent difference between the test and control group's response duration means. […]

Test [2] concerns Mice. Nature of the test: Appetite suppression in mice by subcutaneous synthetic GLP-1(7-36)amide: Complan consumption (Example 4). In kind it is in vivo. The settings on record: p<0.001. The procedure: The test method was as described in Example 3 except that the mice were pre-exposed to formula milk (Complan®—a nutritionally complete infant milk substitute) for one day, then fasted one day. On the test day, consumption of Complan® was measured for each mouse during a 10 min period.
Mice were tested for appetite suppression by subcutaneous injection of GLP-1(7-36)amide dissolved in phosphate buffered saline.

A further test relates to Healthy human volunteers. Kind of test: Effect of iv infused GLP-1(7-36)amide on food intake, satiety, hunger, fullness and appetite in normal human subjects (double-blind crossover). In kind it is in vivo. Particulars: iv infusion 50 pmol/(kg·h) 9.00-15.00, 20 healthy subjects, versus saline. The source says: Healthy human volunteers (20 subjects) were in a double-blind crossover trial given an iv infusion of 50 pmol/(kg·h) of GLP-1(7-36)amide or saline on separate, but otherwise identical experimental days. The infusion was started at 9.00 and lasted until 15.00. At 9.45 the subjects received a fixed amount of breakfast and at 14.15 they had lunch of an identical composition but ad libitum. The subjects rated their feeling of satiety, hunger, fullness and appetite on a visual analogue scale every half hour. The results are given below:
The energy intake of each subjects was measured. The intakes were 3.9 MJ with GLP-1 and 4.3 MJ with Saline resulting in a p-value of 0.009.

Turning to “GLP-1(1-36)amide (HDEFERHAEGTFTSDVSSYLEGQAAKEFIAWLVKGR-NH2; UniProt P01275 92-127, looked up, fragment) [GLP-1 fragment 1-36, C-terminal amide; literature result]”, the “Effect on food intake” value in the test with rats is “no effect on food intake”.
Consider GLP-1(7-36)amide, for which the “Suppression of sucrose consumption” value in the test on Mice [1] is listed as 60%. For the same substance, the “Suppression of feeding (Complan consumption)” value in the test on Mice [2] (1 mg/kg subcutaneous, 30 min after injection) came out at 45%. In the test on Mice [2] (20 mg/kg subcutaneous (highest dose tested)), the “Maximum effect, suppression of feeding (Complan consumption)” value amounted to 60%.
Regarding “GLP-1: literature GLP-1 of b7; b6: proglucagon fragment 72-108 commonly referred to as GLP-1(1-37) or just GLP-1”, the “Satiety (visual analogue scale rating)” value in the test with Healthy human volunteers (p = 0.006) is “GLP-1 > Saline, p = 0.006”. For the same substance, in the test on Healthy human volunteers (p = 0.007), the “Appetite (visual analogue scale rating)” value is listed as “GLP-1 < Saline, p = 0.007” and the “Hunger (visual analogue scale rating)” value is “GLP-1 < Saline, p = 0.007”. In the test with Healthy human volunteers (p = 0.010), the “Fullness (visual analogue scale rating)” value is “GLP-1 > Saline, p = 0.010”.
